Assay results as given in patent US11548900B2, “Oxazino-quinazoline and oxazino-quinoline type compound, preparation method and uses thereof” (BEIJING SCITECH-MQ PHARMACEUTICALS LIMITED, priority 2018, dated 2023).

Biological target: HER2 kinase (Homo sapiens (Human), UniProt P04626)
Assay: Inhibition of HER2 kinase activity (ULight-labeled PolyGT substrate)
Format: biochemical
Conditions: HER2 kinase 10 nM, ATP 10 μM, 2 hours
Protocol: The assay for the inhibition of EGFR and HER2 kinase activity by small molecular compounds was carried out using the method as follows:
1) Dilution of the compounds
In a 96-well plate a, the compounds were diluted with DMSO using a 3-fold gradient dilution to form 11 concentrations, the 12th concentration is pure DMSO (as a positive control); and in a new 96-well plate b the above solutions were diluted 25 times with ultrapure water (DMSO concentration is 4%).
2) Transferring the compounds to 384-well plate
The compound solutions diluted with ultrapure water in the 96-well plate b above was transferred to the corresponding wells of a 384-well plate in duplicate.
3) Addition of 4×kinase solution: 2.5 μl of the above 4× kinase solution was taken using multichannel pipette and added to the corresponding reaction wells of the 384-well plate, mixed well and pre-reacted at room temperature for 5 minutes.
4) Addition of 2×substrate/ATP mixed solution: 5 μl of the above 2×substrate/ATP mixed solution was taken using multichannel pipette and added to the corresponding reaction wells of the 384-well plate.
5) Negative control: negative control wells were set in the 384-well plate, and 2.5 μl 4×substrate, 2.5 μl 4×enzyme solution, 2.5 μl 1×Kinase Assay Buffer and 2.5 μl ultrapure water containing 4% DMSO were added to each well.
6) Mixed by centrifugation and kept at room temperature for 2 hours in the dark.
7) Termination of the enzymatic reaction:
5 μl of the above 4× stop solution was pipetted to the corresponding wells of the 384-well plate, centrifuged and mixed, and reacted at room temperature for 5 minutes.
5 μl of the above 4× detection solution was pipetted into the corresponding wells of the 384-well plate, centrifuged and mixed, and reacted at room temperature for 1 hour.
9) The 384-well plate was placed into a microplate reader and the signal was detected using the corresponding program.
10) IC50 analysis: Well reading value=10000*EU665 value/EU615 value Inhibition rate=(reading value of positive control well−reading value of experimental well)/(reading value of positive control well−reading value of negative control well)*100% Corresponding IC50s can be calculated by entering the drug concentrations and the corresponding inhibition rates into GraphPad Prism 5.
Conditions of experiment for screening HER2 kinase inhibitory molecules:
The final concentration of HER2 kinase in the reaction system is 10 nM, the final concentration of ATP is 10 μM, the final concentration of substrate ULight™-labeled PolyGT is 100 nM, and the enzymatic reaction time is 2 hours.
The maximum final concentration of the compound in the reaction system is 2.5 μM, 11 concentrations were made with a 3-fold gradient dilution, and the minimal final concentration is 0.042 nM. The final concentration of DMSO is 1%.

Sequence of HER2 kinase (P04626 23-1255): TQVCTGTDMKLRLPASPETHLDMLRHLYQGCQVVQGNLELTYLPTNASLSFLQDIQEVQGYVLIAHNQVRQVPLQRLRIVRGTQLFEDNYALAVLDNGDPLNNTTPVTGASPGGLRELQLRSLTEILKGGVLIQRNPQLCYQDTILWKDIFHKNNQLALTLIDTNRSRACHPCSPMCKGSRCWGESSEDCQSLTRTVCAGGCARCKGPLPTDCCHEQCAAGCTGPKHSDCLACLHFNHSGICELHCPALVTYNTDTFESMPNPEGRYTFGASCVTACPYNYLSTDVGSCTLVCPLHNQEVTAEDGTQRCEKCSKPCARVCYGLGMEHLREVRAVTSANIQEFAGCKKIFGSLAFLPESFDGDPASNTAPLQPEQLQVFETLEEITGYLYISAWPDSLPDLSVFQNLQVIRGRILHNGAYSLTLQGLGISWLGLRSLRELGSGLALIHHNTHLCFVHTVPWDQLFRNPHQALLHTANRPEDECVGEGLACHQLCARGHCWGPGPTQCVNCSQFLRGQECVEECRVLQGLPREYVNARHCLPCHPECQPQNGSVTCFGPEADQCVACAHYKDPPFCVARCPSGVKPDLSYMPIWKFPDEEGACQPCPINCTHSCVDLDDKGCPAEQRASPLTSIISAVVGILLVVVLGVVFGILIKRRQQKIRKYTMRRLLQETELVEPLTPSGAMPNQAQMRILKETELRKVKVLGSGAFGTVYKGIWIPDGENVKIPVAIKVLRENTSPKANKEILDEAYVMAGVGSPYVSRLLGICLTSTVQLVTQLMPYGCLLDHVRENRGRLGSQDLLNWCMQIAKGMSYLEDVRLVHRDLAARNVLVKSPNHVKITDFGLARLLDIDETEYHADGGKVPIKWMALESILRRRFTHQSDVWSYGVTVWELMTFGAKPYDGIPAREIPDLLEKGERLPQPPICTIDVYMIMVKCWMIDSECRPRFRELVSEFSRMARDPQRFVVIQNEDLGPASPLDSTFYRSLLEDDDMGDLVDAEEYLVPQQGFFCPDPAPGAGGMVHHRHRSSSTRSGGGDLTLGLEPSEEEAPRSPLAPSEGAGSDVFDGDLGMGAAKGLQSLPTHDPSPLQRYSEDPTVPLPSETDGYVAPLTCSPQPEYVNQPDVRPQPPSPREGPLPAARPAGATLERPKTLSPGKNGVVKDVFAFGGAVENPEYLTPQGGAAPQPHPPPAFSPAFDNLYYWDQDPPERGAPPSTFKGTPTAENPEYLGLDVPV

Compound | IC50 [nM]
C=CC(=O)N1CCOc2c1ccc1ncnc(Nc3ccc(Oc4ccccc4)c(F)c3)c21 [Example 16, 1-(10-((3-fluoro-4-phenoxyphenyl)amino)-2,3-dihydro-4H-[1,4]oxazino[2,3-f]quinazolin-4-yl)prop-2-en-1-one] | ≤ 50
C=CC(=O)N1CCOc2c1ccc1ncnc(Nc3ccc(Oc4ccc(Cl)cc4)cc3)c21 [Example 10, 1-(10-((4-(4-chlorophenoxy)phenyl)amino)-2,3-dihydro-4H-[1,4]oxazino[2,3-f]quinazolin-4-yl)prop-2-en-1-one] | ≤ 50
C=CC(=O)N1CCOc2c1ccc1ncnc(Nc3ccc(OCc4cccc(F)c4)cc3)c21 [Example 19, 1-(10-((4-((3-fluorobenzyl)oxy)phenyl)amino)-2,3-dihydro-4H-[1,4]oxazino[2,3-f]quinazolin-4-yl)prop-2-en-1-one] | ≤ 50
C=CC(=O)N1CCOc2c1ccc1ncnc(Nc3ccc(Oc4ccccc4OCCCN(C)C)cc3)c21 [Example 31, 1-(10-((4-(2-(3-(dimethylamino)propoxy)phenoxy)phenyl)amino)-2,3-dihydro-4H-[1,4]oxazino[2,3-f]quinazolin-4-yl)prop-2-en-1-one] | 50 to 500
C=CC(=O)N1CCOc2c1ccc1ncnc(Nc3ccc(Oc4cccc(OC)c4)cc3)c21 [Example 14, 1-(10-((4-(3-methoxyphenoxy)phenyl)amino)-2,3-dihydro-4H-[1,4]oxazino[2,3-f]quinazolin-4-yl)prop-2-en-1-one] | ≤ 50
C=CC(=O)N1CCOc2c1ccc1ncnc(Nc3ccc(Oc4ccccc4OC)cc3)c21 [Example 11, 1-(10-((4-(2-methoxyphenoxy)phenyl)amino)-2,3-dihydro-4H-[1,4]oxazino[2,3-f]quinazolin-4-yl)prop-2-en-1-one] | ≤ 50
C=CC(=O)N1CCOc2c1ccc1ncnc(Oc3ccc(Oc4cc(Cl)ccc4Cl)cc3)c21 [Example 38, 1-(10-(4-(2,5-dichlorophenoxy)phenoxy)-2,3-dihydro-4H-[1,4]oxazino[2,3-f]quinazolin-4-yl)prop-2-en-1-one] | ≤ 50
C=CC(=O)N1CCOc2c1ccc1ncnc(Nc3ccc(OCc4cccc(C(F)(F)F)c4)cc3)c21 [Example 20, 1-(10-((4-((3-trifluoromethylbenzyl)oxy)phenyl)amino)-2,3-dihydro-4H-[1,4]oxazino[2,3-f]quinazolin-4-yl)prop-2-en-1-one] | ≤ 50
C=CC(=O)N1CCOc2c1ccc1ncnc(Nc3ccc(OCc4cccs4)cc3)c21 [Example 22, 1-(10-((4-(thiophen-2-ylmethoxy)phenyl)amino)-2,3-dihydro-4H-[1,4]oxazino[2,3-f]quinazolin-4-yl)prop-2-en-1-one] | ≤ 50
C=CC(=O)N1CCOc2c1ccc1ncnc(Nc3ccc(Oc4nccs4)cc3)c21 [Example 15, 1-(10-((4-(thiazol-2-yloxy)phenyl)amino)-2,3-dihydro-4H-[1,4]oxazino[2,3-f]quinazolin-4-yl)prop-2-en-1-one] | ≤ 50
C=CC(=O)N1CCOc2c1ccc1ncnc(Nc3ccc(Oc4ccccc4)c(Cl)c3)c21 [Example 17, 1-(10-((3-chloro-4-phenoxyphenyl)amino)-2,3-dihydro-4H-[1,4]oxazino[2,3-f]quinazolin-4-yl)prop-2-en-1-one] | ≤ 50
C=CC(=O)N1CCOc2c1ccc1ncnc(Nc3ccc(OCc4cccc(F)c4)c(F)c3)c21 [Example 27, 1-(10-((4-((3-fluorobenzyl)oxy)-3-fluorophenyl)amino)-2,3-dihydro-4H-[1,4]oxazino[2,3-f]quinazolin-4-yl)prop-2-en-1-one] | ≤ 50
C=CC(=O)N1CCOc2c1ccc1ncnc(Nc3ccc(Sc4ccc(F)cc4)cc3)c21 [Example 28, 1-(10-((4-((4-fluorophenyl)thio)phenyl)amino)-2,3-dihydro-4H-[1,4]oxazino[2,3-f]quinazolin-4-yl)prop-2-en-1-one] | ≤ 50
C=CC(=O)N1CCOc2c1ccc1ncnc(Nc3ccc(OCc4cccc(F)c4)c(C(F)(F)F)c3)c21 [Example 25, 1-(10-((4-((3-fluorobenzyl)oxy)-3-(trifluoromethyl)phenyl)amino)-2,3-dihydro-4H-[1,4]oxazino[2,3-f]quinazolin-4-yl)prop-2-en-1-one] | ≤ 50
C=CC(=O)N1CCOc2c1ccc1ncnc(Nc3ccc(OCc4ccccn4)cc3)c21 [Example 21, 1-(10-((4-(pyridin-2-ylmethoxy)phenyl)amino)-2,3-dihydro-4H-[1,4]oxazino[2,3-f]quinazolin-4-yl)prop-2-en-1-one] | ≤ 50
C=CC(=O)N1CCOc2c1ccc1ncnc(Nc3ccc(Oc4ccccc4OCCN(C)C)cc3)c21 [Example 30, 1-(10-((4-(2-(2-(dimethylamino)ethoxy)phenoxy)phenyl)amino)-2,3-dihydro-4H-[1,4]oxazino[2,3-f]quinazolin-4-yl)prop-2-en-1-one] | ≤ 50
C=CC(=O)N1CCOc2c1ccc1ncnc(Nc3ccc(SCc4ccccc4)cc3)c21 [Example 24, 1-(10-((4-(benzylthio)phenyl)amino)-2,3-dihydro-4H-[1,4]oxazino[2,3-f]quinazolin-4-yl)prop-2-en-1-one] | ≤ 50
C=CC(=O)N1CCOc2c1ccc1ncnc(Nc3ccc(Oc4ccc(F)cc4)cc3)c21 [Example 9, 1-(10-((4-(4-fluorophenoxy)phenyl)amino)-2,3-dihydro-4H-[1,4]oxazino[2,3-f]quinazolin-4-yl)prop-2-en-1-one] | ≤ 50
O=C(/C=C/CN1CCCCC1)N1CCOc2c1ccc1ncnc(Nc3ccc(Oc4ccccc4)cc3F)c21 [Example 97, (E)-1-(10-((2-fluoro-4-phenoxyphenyl)amino)-2,3-dihydro-4H-[1,4]oxazino[2,3-f]quinazolin-4-yl)-4-(piperidin-1-yl)but-2-en-1-one] | ≤ 50

Results, then the compound that gave them:

IC50 [nM] | Compound
≤ 50 | C=CC(=O)N1CCOc2c1ccc1ncnc(Nc3ccc(Oc4cccc(C(F)(F)F)c4)cc3)c21 [Example 1, 1-(10-((4-(3-(trifluoromethyl)phenoxy)phenyl)amino)-2,3-dihydro-4H-[1,4]oxazino[2,3-f]quinazolin-4-yl)prop-2-en-1-one]
≤ 50 | C=CC(=O)N1CCOc2c1ccc1ncnc(Nc3ccc(Oc4ccccc4)cc3F)c21 [Example 29, 1-(10-((2-fluoro-4-phenoxyphenyl)amino)-2,3-dihydro-4H-[1,4]oxazino[2,3-f]quinazolin-4-yl)prop-2-en-1-one]
≤ 50 | C=CC(=O)N1CCOc2c1ccc1ncnc(Nc3ccc(Oc4ccccc4F)cc3)c21 [Example 8, 1-(10-((4-(2-fluorophenoxy)phenyl)amino)-2,3-dihydro-4H-[1,4]oxazino[2,3-f]quinazolin-4-yl)prop-2-en-1-one]
≤ 50 | C=CC(=O)N1CCOc2c1ccc1ncnc(Nc3ccc(Oc4cccc(Cl)c4)cc3)c21 [Example 6, 1-(10-((4-(3-chlorophenoxy)phenyl)amino)-2,3-dihydro-4H-[1,4]oxazino[2,3-f]quinazolin-4-yl)prop-2-en-1-one]
≤ 50 | C=CC(=O)N1CCOc2c1ccc1ncnc(Nc3ccc(Oc4cccnc4)cc3)c21 [Example 13, 1-(10-((4-(pyridin-3-yloxy)phenyl)amino)-2,3-dihydro-4H-[1,4]oxazino[2,3-f]quinazolin-4-yl)prop-2-en-1-one]
≤ 50 | C=CC(=O)N1CCOc2c1ccc1ncnc(Oc3ccc(Oc4ccc(Cl)cc4)cc3)c21 [Example 36, 1-(10-(4-(4-chlorophenoxy)phenoxy)-2,3-dihydro-4H-[1,4]oxazino[2,3-f]quinazolin-4-yl)prop-2-en-1-one]
≤ 50 | C=CC(=O)N1CCOc2c1ccc1ncnc(Nc3ccc(Oc4cccc(F)c4)cc3)c21 [Example 7, 1-(10-((4-(3-fluorophenoxy)phenyl)amino)-2,3-dihydro-4H-[1,4]oxazino[2,3-f]quinazolin-4-yl)prop-2-en-1-one]
≤ 50 | C=CC(=O)N1CCOc2c1ccc1ncnc(Nc3ccc(Oc4cccc(C)c4)cc3)c21 [Example 5, 1-(10-((4-(m-tolyloxy)phenyl)amino)-2,3-dihydro-4H-[1,4]oxazino[2,3-f]quinazolin-4-yl)prop-2-en-1-one]
≤ 50 | O=C(/C=C/CN1CCCCC1)N1CCOc2c1ccc1ncnc(Nc3ccc(Oc4ccccc4)c(F)c3)c21 [Example 98, (E)-1-(10-((3-fluoro-4-phenoxyphenyl)amino)-2,3-dihydro-4H-[1,4]oxazino[2,3-f]quinazolin-4-yl)-4-(piperidin-1-yl)but-2-en-1-one]
